Earlier results, collected in paper PMC7904743, “WIDOCK: a reactive docking protocol for virtual screening of covalent inhibitors” (Journal of Computer-Aided Molecular Design, 2021).
Like-named read-outs stand apart in the source and are kept apart here.

How the values were obtained:
[1] = thiol reactivity, cited from earlier work
[2] = system: NUDT7; conditions: protein labeling at 200 μM; experimental actives if % labeling higher than 50%; cited from earlier work
[3] = system: OTUB2; conditions: experimental actives if % labeling higher than 50%, cited from earlier work
[4] = natural log of average kinetic rate constant
[5] = natural log of average rate constant
[6] = natural log of average rate constant k
[7] = natural logarithm of average rate constant

Compound	ln(avg k) [1, 4]	ln(avg k) [1, 5]	NUDT7 % labeling [2] [%]	OTUB2 % labeling ([3]; OTUB2 protein labeling) [%]	ln(avg k) [1, 6]	ln(avg k) [1, 7]	OTUB2 % labeling [3] [%]
Cc1ccc(CNC(=O)CCl)s1 [PCM-0102973, Cc1ccc(CNC(=O)CCl)s1]	-16.818	-16.818	11	75			
CN(C(=O)CCl)c1ccccc1 [PCM-0102368, CN(C(=O)CCl)c1ccccc1]			0		-15.648	-15.648	0
Cc1ccc(-c2csc(NC(=O)CCl)n2)cc1 [PCM-0102168, Cc1ccc(-c2csc(NC(=O)CCl)n2)cc1]			40		-15.760	-15.760	0
O=C(CCl)N1CCN(Cc2ccccc2F)CC1 [PCM-0102387, O=C(CCl)N1CCN(Cc2ccccc2F)CC1]			0		-15.308	-15.308	32
Cc1ccc(-n2nc(C)c(NC(=O)CCl)c2C)cc1 [PCM-0102131, Cc1ccc(-n2nc(C)c(NC(=O)CCl)c2C)cc1]			0		-16.325	-16.325	0
Cc1ccc(CN(C)C(=O)CCl)c(C)c1 [PCM-0102552, Cc1ccc(CN(C)C(=O)CCl)c(C)c1]			19		-16.104	-16.104	0
O=C(CCl)NC1CCN(C(=O)C2CCCCC2)CC1 [PCM-0102931, O=C(CCl)NC1CCN(C(=O)C2CCCCC2)CC1]	-16.253	-16.253	0	9			
O=C(CCl)NC1(c2ccc3c(c2)OCCO3)CCCC1 [PCM-0102951, O=C(CCl)NC1(c2ccc3c(c2)OCCO3)CCCC1]	-16.488	-16.488	100	0			
O=C(CCl)NC(=O)Nc1ccc2c(c1)OCO2 [PCM-0102333, O=C(CCl)NC(=O)Nc1ccc2c(c1)OCO2]			29		-15.968	-15.968	53
O=C(CCl)Nc1cc(F)ccc1F [PCM-0102284, O=C(CCl)Nc1cc(F)ccc1F]			0		-15.941	-15.941	28
O=C(CCl)N1CCN(c2ncc(C(F)(F)F)cc2Cl)CC1 [PCM-0102378, O=C(CCl)N1CCN(c2ncc(C(F)(F)F)cc2Cl)CC1]			14		-15.476	-15.476	5
Cc1cc(NC(=O)CCl)on1 [PCM-0102197, Cc1cc(NC(=O)CCl)on1]			0		-16.303	-16.303	0
O=C(CCl)N1CCCCCCC1 [PCM-0102377, O=C(CCl)N1CCCCCCC1]			0		-15.780	-15.780	0
O=C(CCl)Nc1cc(Cl)ccc1Cl [PCM-0102288, O=C(CCl)Nc1cc(Cl)ccc1Cl]			6		-16.095	-16.095	0
CC(C)(C)C(NC(=O)CCl)c1cccs1 (stereo not drawn) [PCM-0102773, CC(C)(C)C(NC(=O)CCl)c1cccs1]	-16.457	-16.457	9	0			
Cc1cc(Br)ccc1NC(=O)CCl [PCM-0102799, Cc1cc(Br)ccc1NC(=O)CCl]	-16.305	-16.305	24	61			
O=C(CCl)N1CCN(c2ncccn2)CC1 [PCM-0102093, O=C(CCl)N1CCN(c2ncccn2)CC1]			0		-15.547	-15.547	0
CC(C)(C)n1ncc2c1CCCC2NC(=O)CCl (stereo not drawn) [PCM-0103046, CC(C)(C)n1ncc2c1CCCC2NC(=O)CCl]	-16.467	-16.467	0	36			
O=C(CCl)NCC(=O)N1CCCC1 [PCM-0102391, O=C(CCl)NCC(=O)N1CCCC1]			0		-17.246	-17.246	0
COC(=O)C1Cc2ccccc2CN1C(=O)CCl (stereo not drawn) [PCM-0102841, COC(=O)C1Cc2ccccc2CN1C(=O)CCl]	-14.128	-14.128	19	41			
CC(C)(C)c1cc(NC(=O)CCl)n(-c2ccccc2)n1 [PCM-0102536, CC(C)(C)c1cc(NC(=O)CCl)n(-c2ccccc2)n1]			0		-15.955	-15.955	14

Compound	ln(avg k) [1, 4]	ln(avg k) [1, 5]	NUDT7 % labeling [2] [%]	OTUB2 % labeling ([3]; OTUB2 protein labeling) [%]	ln(avg k) [1, 6]	ln(avg k) [1, 7]	OTUB2 % labeling [3] [%]
Cc1nnc(NC(=O)CCl)s1 [PCM-0102211, Cc1nnc(NC(=O)CCl)s1]			0		-15.999	-15.999	0
O=C(CCl)Nc1cc([N+](=O)[O-])ccc1F [PCM-0102544, O=C(CCl)Nc1cc([N+](=O)[O-])ccc1F]			0		-15.793	-15.793	31
N#Cc1ccc(Cl)cc1NC(=O)CCl [PCM-0102700, N#Cc1ccc(Cl)cc1NC(=O)CCl]			40		-16.148	-16.148	17
O=C(CCl)N1CCSC1c1ccccc1F (stereo not drawn) [PCM-0102293, O=C(CCl)N1CCSC1c1ccccc1F]			83		-15.618	-15.618	12
O=C(CCl)Nc1ccccc1C(=O)O [PCM-0102307, O=C(CCl)Nc1ccccc1C(=O)O]			0		-17.138	-17.138	0
Cc1ccccc1C(C)NC(=O)CCl (stereo not drawn) [PCM-0102390, Cc1ccccc1C(C)NC(=O)CCl]			10		-16.582	-16.582	26
CNC(=O)c1ccc(NC(=O)CCl)cc1 [PCM-0102267, CNC(=O)c1ccc(NC(=O)CCl)cc1]			0		-15.048	-15.048	0
Cc1cc(NC(=O)CCl)n(C(C)(C)C)n1 [PCM-0103057, Cc1cc(NC(=O)CCl)n(C(C)(C)C)n1]	-16.148	-16.148	0	0			
O=C(CCl)Nc1ccc([N+](=O)[O-])cc1Cl [PCM-0102392, O=C(CCl)Nc1ccc([N+](=O)[O-])cc1Cl]			16		-15.878	-15.878	21
O=C(CCl)NCC1Cc2ccccc2O1 (stereo not drawn) [PCM-0103020, O=C(CCl)NCC1Cc2ccccc2O1]	-17.072	-17.072	0	0			
CC(=O)Nc1cccc(NC(=O)CCl)c1 [PCM-0102172, CC(=O)Nc1cccc(NC(=O)CCl)c1]			0		-15.748	-15.748	0
Cc1c(C#N)c(NC(=O)CCl)n(C2CCCC2)c1C [PCM-0102183, Cc1c(C#N)c(NC(=O)CCl)n(C2CCCC2)c1C]			28		-15.991	-15.991	0
O=C(CCl)NC1(c2ccccc2)CCC1 [PCM-0102935, O=C(CCl)NC1(c2ccccc2)CCC1]	-16.140	-16.140	29	0			
O=C(CCl)Nc1ccccc1Br [PCM-0102312, O=C(CCl)Nc1ccccc1Br]			15		-16.261	-16.261	0
CC1(C)C(=O)Nc2ccccc2N1C(=O)CCl [PCM-0102546, CC1(C)C(=O)Nc2ccccc2N1C(=O)CCl]			18		-15.068	-15.068	32
O=C(CCl)N1CCN(c2ccccc2Cl)CC1 [PCM-0102297, O=C(CCl)N1CCN(c2ccccc2Cl)CC1]			35		-14.978	-14.978	0
Cc1ccc(C(=O)O)cc1NC(=O)CCl [PCM-0102624, Cc1ccc(C(=O)O)cc1NC(=O)CCl]			0		-17.065	-17.065	0
CC(NC(=O)CCl)c1ccc(Cl)c(Cl)c1 (stereo not drawn) [PCM-0102096, CC(NC(=O)CCl)c1ccc(Cl)c(Cl)c1]			51		-16.200	-16.200	26
N#Cc1oc2ccccc2c1NC(=O)CCl [PCM-0102252, N#Cc1oc2ccccc2c1NC(=O)CCl]			37		-15.605	-15.605	86
O=C(CCl)Nc1ccc(C(F)(F)F)cc1 [PCM-0102323, O=C(CCl)Nc1ccc(C(F)(F)F)cc1]			7		-15.637	-15.637	17
CC(C)N(C(=O)CCl)c1ccccc1 [PCM-0102272, CC(C)N(C(=O)CCl)c1ccccc1]			22		-15.780	-15.780	0
